Data: US11147272B2, “Pyridone compounds and agricultural and horticultural fungicides comprising the same as active ingredients” (MITSUI CHEMICALS AGRO, INC., priority 2017, dated 2021)

Assays:
[1] = system: Magnaporthe grisea; test: whole plant or invertebrate; format: in vivo; settings: 250 ppm drug solution sprayed on test plant
[2] = system: Alternaia brassicicola; test: Test Example C: Alternaria sooty spot on cabbage; format: in vivo; settings: 250 ppm drug solution sprayed on test plant
From the text: Seeds of a test plant (cabbage variety: Shikidori) were planted and cultivated until the cotyledons extended.
<Control Value> Control value=100{1−(n/3)}

[3] = system: Puccinia recondita; test: Test Example E: Brown rust on wheat; format: in vivo; settings: 250 ppm drug solution sprayed on test plant
[4] = system: Phytophthora infestans; test: whole plant or invertebrate; format: in vivo; settings: 250 ppm drug solution sprayed on test plant
[5] = system: Botrytis cinerea; test: Test Example B: Gray mold on tomato; settings: 250 ppm drug solution sprayed on test plant
[6] = system: Plasmopara viticola; test: Test Example G: Downy mildew on vine; settings: 250 ppm drug solution sprayed (2.5 ml/pot), grape Neomuscat, 7 to 10 days after inoculation
[7] = system: Colletotrichum orbiculare; test: Test Example H: Anthracnose on cucumber; settings: 250 ppm drug solution sprayed (2.5 ml/pot), cucumber Sagami Hanjiro, 6 to 10 days after inoculation
[8] = system: Blumeria graminis f. sp. hordei; test: Test Example D: Powdery mildew on barley; settings: 250 ppm drug solution sprayed on test plant

| Structure (SMILES) | Test A control value [1] | Test C control value [2] | Test E control value [3] | Test F control value [4] | Test B control value [5] | Test G control value [6] | Test H control value [7] | Test D control value [8] |
| --- | --- | --- | --- | --- | --- | --- | --- | --- |
| CCC(C)(OC)c1cc(Cl)c(=O)n(C)c1-c1c(F)cc(F)cc1F (stereo not shown) [compound 508] | H (more than 50% control value) | H (more than 50% control value) | H (more than 50% control value) | L (50% or less control value) | H (more than 50% control value) | H (more than 50% control value) | H (more than 50% control value) | H (more than 50% control value) |
| CCOC(C)(CC)c1cc(Cl)c(=O)n(C)c1-c1c(F)cc(F)cc1F (stereo not shown) [compound 509] | H (more than 50% control value) | L (50% or less control value) | H (more than 50% control value) | L (50% or less control value) | L (50% or less control value) | H (more than 50% control value) | H (more than 50% control value) | H (more than 50% control value) |
| CCn1c(-c2c(F)cccc2F)c(C=O)ccc1=O [compound 510] | H (more than 50% control value) | L (50% or less control value) | L (50% or less control value) | L (50% or less control value) | L (50% or less control value) | L (50% or less control value) | L (50% or less control value) | L (50% or less control value) |
| CCC(C)(OC)c1cc(Cl)c(=O)n(C)c1-c1c(F)cc(OC)cc1F (stereo not shown) [compound 511] | H (more than 50% control value) | H (more than 50% control value) | H (more than 50% control value) | L (50% or less control value) | H (more than 50% control value) | H (more than 50% control value) | H (more than 50% control value) | L (50% or less control value) |
| CCC(C)(O)c1cc(Cl)c(=O)n(C)c1-c1c(F)cc(OC)cc1F (stereo not shown) [compound 513] | H (more than 50% control value) | H (more than 50% control value) | H (more than 50% control value) | L (50% or less control value) | H (more than 50% control value) | H (more than 50% control value) | H (more than 50% control value) | H (more than 50% control value) |
| CCn1c(-c2c(F)cc(F)cc2F)c(C(C)O)cc(Cl)c1=O (stereo not shown) [compound 514] | L (50% or less control value) | H (more than 50% control value) | H (more than 50% control value) | L (50% or less control value) | H (more than 50% control value) | H (more than 50% control value) | H (more than 50% control value) | H (more than 50% control value) |
| CCn1c(-c2c(F)cccc2F)c(C(O)C(C)C)cc(Br)c1=O (stereo not shown) [compound 520] | H (more than 50% control value) | H (more than 50% control value) | H (more than 50% control value) | L (50% or less control value) | H (more than 50% control value) | H (more than 50% control value) | H (more than 50% control value) | H (more than 50% control value) |
| CCn1c(-c2c(F)cccc2F)c(C(C)(O)C(C)C)ccc1=O (stereo not shown) [compound 521] | L (50% or less control value) | H (more than 50% control value) | H (more than 50% control value) | L (50% or less control value) | H (more than 50% control value) | H (more than 50% control value) | L (50% or less control value) | H (more than 50% control value) |
